Test in all cases: IA-DTB cysteine engagement
Holding throughout (assay type): binding
Common to all, as to conditions: 22Rv1 cells, 20 μM probe, 1 h, relative to DMSO

One assay has as its target T1, CYP27B1_C163 (Homo sapiens, UniProt O15528).
T1 construct: endogenous in cells; host or cells: 22Rv1
T1 sequence (O15528 1-508): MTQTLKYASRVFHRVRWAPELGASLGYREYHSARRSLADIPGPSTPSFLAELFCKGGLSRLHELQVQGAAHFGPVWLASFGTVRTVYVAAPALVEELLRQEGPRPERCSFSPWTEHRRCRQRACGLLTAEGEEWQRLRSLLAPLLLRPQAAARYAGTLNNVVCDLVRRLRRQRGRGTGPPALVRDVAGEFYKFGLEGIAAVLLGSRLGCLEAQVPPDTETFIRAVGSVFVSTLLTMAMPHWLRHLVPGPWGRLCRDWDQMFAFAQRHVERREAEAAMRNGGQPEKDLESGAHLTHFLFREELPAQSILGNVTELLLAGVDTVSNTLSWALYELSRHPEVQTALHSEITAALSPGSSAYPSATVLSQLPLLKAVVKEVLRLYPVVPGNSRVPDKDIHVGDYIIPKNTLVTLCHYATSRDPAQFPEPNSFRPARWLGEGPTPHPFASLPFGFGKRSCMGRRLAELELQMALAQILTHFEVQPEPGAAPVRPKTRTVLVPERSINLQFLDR
Summed up: (§1)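 Probe-exposed cells were lysed, IA-DTB-labeled, trypsinized and streptavidin-enriched. Multiplexed TMT quantitation gave engagement ratios versus DMSO, with non-tryptic peptides excluded and intensities normalized to median summed signal.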

For a further assay, the target named is T2, PNPLA8_C100 (Homo sapiens, UniProt Q9NP80).
T2 construct: endogenous in cells; host or cells: 22Rv1
T2 sequence (Q9NP80 1-782): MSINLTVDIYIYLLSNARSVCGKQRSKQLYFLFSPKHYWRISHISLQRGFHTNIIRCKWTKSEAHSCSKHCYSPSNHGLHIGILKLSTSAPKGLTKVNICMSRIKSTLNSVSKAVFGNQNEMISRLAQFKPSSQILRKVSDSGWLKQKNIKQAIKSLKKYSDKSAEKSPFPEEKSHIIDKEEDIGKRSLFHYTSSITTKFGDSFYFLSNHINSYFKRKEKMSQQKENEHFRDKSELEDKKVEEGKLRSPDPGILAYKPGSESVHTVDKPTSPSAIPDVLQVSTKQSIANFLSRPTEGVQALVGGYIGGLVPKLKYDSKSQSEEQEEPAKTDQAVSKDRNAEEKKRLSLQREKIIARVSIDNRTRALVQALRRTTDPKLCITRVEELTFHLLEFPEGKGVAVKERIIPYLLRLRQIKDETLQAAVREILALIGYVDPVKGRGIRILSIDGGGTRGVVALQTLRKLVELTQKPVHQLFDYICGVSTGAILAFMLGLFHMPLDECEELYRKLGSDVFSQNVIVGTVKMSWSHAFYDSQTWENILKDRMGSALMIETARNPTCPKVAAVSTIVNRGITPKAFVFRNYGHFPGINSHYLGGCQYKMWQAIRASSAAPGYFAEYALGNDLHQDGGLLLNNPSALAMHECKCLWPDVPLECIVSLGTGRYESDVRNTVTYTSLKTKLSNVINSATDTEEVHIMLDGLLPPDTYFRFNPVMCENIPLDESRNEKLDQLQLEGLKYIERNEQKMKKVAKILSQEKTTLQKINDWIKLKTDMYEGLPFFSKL
Summed up:
as §1

The target of the next assay is T3, OCIAD1_C98 (Homo sapiens, UniProt Q9NX40).
T3 construct: endogenous in cells; host or cells: 22Rv1
T3 sequence (Q9NX40 1-245): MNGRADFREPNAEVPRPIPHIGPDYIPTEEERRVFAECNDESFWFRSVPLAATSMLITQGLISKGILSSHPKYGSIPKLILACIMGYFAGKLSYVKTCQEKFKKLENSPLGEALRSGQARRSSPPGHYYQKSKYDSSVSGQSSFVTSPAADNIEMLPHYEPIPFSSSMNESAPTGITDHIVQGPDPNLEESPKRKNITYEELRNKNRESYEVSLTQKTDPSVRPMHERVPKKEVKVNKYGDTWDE
In a few lines: as §1

The text below walks through data of patent publication US20250034216A1, “STEREOSELECTIVE COVALENT LIGANDS FOR ONCOGENIC AND IMMUNOLOGICAL PROTEINS” (The Scripps Research Institute, priority 2021, published 2025).

Structures are written as SMILES.

With `C=CC(=O)N1C[C@@H](c2ccc(Br)cc2)[C@H]1C(=O)Nc1cccc2cccnc12` [MY-1A, (2S,3R)-1-acryloyl-3-(4-bromophenyl)-N-(quinolin-8-yl)azetidine-2-carboxamide], the “% engagement CYP27B1_C163” value on CYP27B1_C163 worked out at 73%. The “% engagement PNPLA8_C100” value on PNPLA8_C100 came out at 67%. At OCIAD1_C98, the “% engagement OCIAD1_C98” value amounted to 26%.
For `C=CC(=O)N1C[C@H](c2ccc(Br)cc2)[C@@H]1C(=O)Nc1cccc2cccnc12` [MY-1B, (2R,3S)-1-acryloyl-3-(4-bromophenyl)-N-(quinolin-8-yl)azetidine-2-carboxamide], in that order: 89%, 59.5% and 19%.
As to `C=CC(=O)N1C[C@H](c2ccc(Br)cc2)[C@H]1C(=O)Nc1cccc2cccnc12` [MY-3A, (2S,3S)-1-acryloyl-3-(4-bromophenyl)-N-(quinolin-8-yl)azetidine-2-carboxamide], the “% engagement CYP27B1_C163” value on CYP27B1_C163 is 73.5%. Also, the “% engagement PNPLA8_C100” value at PNPLA8_C100 came out at 48%. For the same compound, on OCIAD1_C98, the “% engagement OCIAD1_C98” value came to 12.5%.
In the case of `C=CC(=O)N1C[C@H](c2ccc(Br)cc2)[C@H]1C(=O)Nc1cccc2cccnc12` [MY-3B, (2S,3S)-1-acryloyl-3-(4-bromophenyl)-N-(quinolin-8-yl)azetidine-2-carboxamide], at CYP27B1_C163, the “% engagement CYP27B1_C163” value was 100%. Also, on PNPLA8_C100, the “% engagement PNPLA8_C100” value came out at 70.5%. For the same compound, on OCIAD1_C98, the “% engagement OCIAD1_C98” value came to 72.5%.
